Data reported in ChEMBL document CHEMBL1147058, “An antibiotic produced by an insect-pathogenic bacterium suppresses host defenses through phenoloxidase inhibition” (Proc Natl Acad Sci U S A, 2007).
Activity calls are given as the source filed them. No cut-off for these calls is given here.

Tests used:
[1] = Drug level in Photorhabdus luminescens TT01 infected Manduca sexta hemolymph after 24 hrs by TLC plate method; type: ADME, tissue-based; conditions: read-out: Drug uptake
[2] = test system: Photorhabdus luminescens; assay: Induction of virulence of Photorhabdus luminescens TT01 assessed as increase in proliferation of Photorhabdus luminescens TT01 in Manduca sexta; type: functional
[3] = test system: Manduca sexta; assay: Inhibition of immune system assessed as suppression of melanotic nodule formation in Photorhabdus luminescens TT01 infected Manduca sexta; type: functional, organism-based
[4] = test system: Photorhabdus luminescens; assay: Induction of virulence of Photorhabdus luminescens TT01 assessed as decrease in survival of Photorhabdus luminescens TT01 infected Manduca sexta in presence of cinnamic acid; type: functional
[5] = molecular target: T1, Prophenoloxidase (Manduca sexta) (UniProt Q0VJU6); assay: Inhibition of Manduca sexta phenoloxidase at 60 uM
T1 sequence (whole entry): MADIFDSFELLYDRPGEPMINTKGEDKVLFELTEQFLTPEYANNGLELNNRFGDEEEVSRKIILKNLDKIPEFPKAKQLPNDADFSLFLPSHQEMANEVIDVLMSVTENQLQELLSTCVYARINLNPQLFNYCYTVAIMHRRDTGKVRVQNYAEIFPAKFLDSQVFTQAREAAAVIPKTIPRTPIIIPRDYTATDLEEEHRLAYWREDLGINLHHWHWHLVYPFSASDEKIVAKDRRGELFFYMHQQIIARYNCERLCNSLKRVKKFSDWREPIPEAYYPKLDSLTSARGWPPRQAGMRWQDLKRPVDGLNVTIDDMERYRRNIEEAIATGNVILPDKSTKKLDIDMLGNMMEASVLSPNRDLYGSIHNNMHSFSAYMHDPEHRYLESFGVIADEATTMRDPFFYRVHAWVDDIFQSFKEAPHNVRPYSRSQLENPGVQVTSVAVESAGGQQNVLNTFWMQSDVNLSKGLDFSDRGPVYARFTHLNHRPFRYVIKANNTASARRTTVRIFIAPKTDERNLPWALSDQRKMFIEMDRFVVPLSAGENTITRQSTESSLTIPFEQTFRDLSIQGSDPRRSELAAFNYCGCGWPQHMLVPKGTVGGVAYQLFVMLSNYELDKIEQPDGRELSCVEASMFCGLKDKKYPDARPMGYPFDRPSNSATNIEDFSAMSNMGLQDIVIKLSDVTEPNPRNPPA

[6] = test system: Photorhabdus luminescens; assay: Induction of virulence of stlA deficient Photorhabdus luminescens BMM901 assessed as decrease in survival of Photorhabdus luminescens BMM901 infected Manduca sexta in presence of cinnamic acid; type: functional
[7] = test system: Photorhabdus luminescens; assay: Induction of virulence of stlA deficient Photorhabdus luminescens BMM901 assessed as increase in proliferation of Photorhabdus luminescens BMM901 in Manduca sexta in presence of cinnamic acid; type: functional
[8] = test system: Photorhabdus luminescens; assay: Induction of virulence of Photorhabdus luminescens TT01 assessed as decrease in survival of Photorhabdus luminescens TT01 infected Manduca sexta; type: functional
[9] = test system: Photorhabdus luminescens; assay: Induction of virulence of Photorhabdus luminescens TT01 assessed as increase in proliferation of Photorhabdus luminescens TT01 in Manduca sexta in presence of cinnamic acid; type: functional

## CC(C)c1c(O)cc(/C=C/c2ccccc2)cc1O [TAPINAROF]
[1]
  concentration at 24 h: 275 µg/mL
[2]
  Activity: Active
[3]
  Activity: Active
[4]
  Activity: Active
[5]
  Activity: Dose-dependent effect
[6]
  Activity: Active
[7]
  Activity: Active
[8]
  Activity: Active
[9]
  Activity: Active
